The values that follow come from US9469665B2, “Compound having lysophosphatidylserine receptor function modulation activity” (THE UNIVERSITY OF TOKYO, priority 2013, dated 2016).

Holding throughout (format): cell-based
One assay concerns the target T1, mouse GPR34 (Mus musculus, UniProt Q9R1K6).
T1 construct: expressed in transfected cells; host or cells: HEK293
The assay is described as follows: TGFα shedding assay, agonistic activity on GPR34. As to conditions: for GPR34/LPS2 agonistic activity, TGFα shedding assay: HEK293 cells transfected with mouse GPR34 and AP labeled TGFα, activity relative to control compound 1 (LPS18:1) = +++. More on the design: key to GPR34/LPS2 agonistic activity, TGFα shedding assay: an activity that is 100 folds that of control compound 1 as +++++; an activity that is 10 folds that of control compound 1 as ++++; the activity of the control compound 1 (LPS18:1) as +++; an activity that is 1/10 as ++; an activity that is 1/100 as +; an activity below that as −. The protocol: (§1) [Test Example 1]Assay of Agonistic Activity by TGFα Shedding Assay
(§2) HEK293 cells were suspended in the Dulbecco's modified Eagle's medium (DMEM) containing 10% fetal bovine serum (FCS) to exist in an amount of 2.0×10^5 cells/mL, and they were seeded in 60 mm dishes at 4 mL per dish. Transfection of different expression vectors was performed using LipofectAMINE 2000 (Invitrogen) after 24 hours of culture under the presence of 5% CO2. For each 60 mm dish, 1 μg of AP labeled TGFα plasmid vectors were used, and 1 μg of pCAGGS plasmid vectors of mouse GPR34, P2Y10 or GPR174 were used. The plasmid vectors were prepared by methods disclosed in Patent Documents 2 and 5. Note that the AP labeled TGFα is a protein comprising a membrane-bound pro-TGFα whose N terminal end is fused with human placental alkaline phosphatase, and the plasmid vector of the AP labeled TGFα may be produced based on the teaching of Tokumaru et al., J Cell Biol 151, 209-220 (2000). After 24 hours of transfection, the cells were peeled off using trypsin/EDTA, and they were re-suspended in a culture medium to form an amount of 2.0×10^4 cells/well to be seeded to a 96-well plate. Hanks' Balanced Salt Solution (HBSS, containing 5 mM HEPES) was used for the re-suspended solution when stimulating with the compound. After it was left still for 30 min., subject compounds of various concentrations were added and the solutions were left still for another 1 hour under the presence of 5% CO2. The 96-well plate was subjected to centrifugation (190×g, 3 min.), then 80 μl of supernatant was transferred to a different 96-well plate. A reaction buffer (40 mM Tris-HCl (pH 9.5)) containing 10 mM p-nitrophenyl phosphate (p-NPP) was added in an amount of 80 μL to the supernatant and cells. The OD405 was measured with a micro plate reader (background), then after heating at 37° C. for an hour, OD405 was re-measured. The AP activity for each well was obtained by subtracting the background from the second absorbance and plugging the difference into the following formula.
(§3) In addition, the value obtained by subtracting the AP activity (%) of the non-stimulated group was used in the vertical axis to create a graph. The graphs of the test results for Example 3 (lysoPS sn-1-deoxy sn3 C3-ph-o-OBn-m-Oph) and Example 31 (lysoPS sn-1-OMe sn3 C3-ph-o-OBn-m-Oph) are shown in FIG. 1.
(§4) The obtained activity is shown by plotting the compound concentration and AP activity (%), then representing the activity of the control compound 1 (LPS18:1) as +++, an activity that is 10 folds that of control compound 1 as ++++, an activity that is 100 folds that of control compound 1 as +++++, an activity that is 1/10 as ++, and an activity that is 1/100 as +, and an activity below that as −.

For the next assay, the target named is T2, mouse P2Y10 (Mus musculus, UniProt Q8BFU7).
T2 construct: expressed in transfected cells; host or cells: HEK293
T2 sequence (Q8BFU7 whole entry): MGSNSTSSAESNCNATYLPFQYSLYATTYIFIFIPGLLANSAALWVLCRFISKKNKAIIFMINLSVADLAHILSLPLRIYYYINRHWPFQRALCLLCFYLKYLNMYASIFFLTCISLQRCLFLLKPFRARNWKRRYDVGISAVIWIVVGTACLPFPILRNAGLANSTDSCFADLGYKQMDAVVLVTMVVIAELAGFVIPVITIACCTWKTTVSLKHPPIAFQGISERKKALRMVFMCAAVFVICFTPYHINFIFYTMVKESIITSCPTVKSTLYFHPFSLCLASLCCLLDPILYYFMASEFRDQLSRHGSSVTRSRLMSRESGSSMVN
The assay is described as follows: TGFα shedding assay, agonistic activity on P2Y10. As to conditions: HEK293 cells transfected with mouse P2Y10 and AP labeled TGFα; activity relative to control compound 1 (LPS18:1) = +++. On the set-up: key: an activity that is 100 folds that of control compound 1 as +++++; an activity that is 10 folds that of control compound 1 as ++++; the activity of the control compound 1 (LPS18:1) as +++; an activity that is 1/10 as ++; an activity that is 1/100 as +; an activity below that as −. As for the experimental part: as §1, §2, §3, §4

A further assay concerns the target T3, mouse GPR174 (Mus musculus, UniProt Q3U507).
T3 construct: expressed in transfected cells; host or cells: HEK293
The assay is described as follows: TGFα shedding assay, agonistic activity on GPR174. More on the design: key: an activity that is 100 folds that of control compound 1 as +++++; an activity that is 10 folds that of control compound 1 as ++++; the activity of the control compound 1 (LPS18:1) as +++; an activity that is 1/10 as ++; an activity that is 1/100 as +; an activity below that as −. The note with it: HEK293 cells transfected with mouse GPR174 and AP labeled TGFα; activity relative to control compound 1 (LPS18:1) = +++. As for the experimental part: as §1, §2, §3, §4

T1 sequence (Q9R1K6 whole entry): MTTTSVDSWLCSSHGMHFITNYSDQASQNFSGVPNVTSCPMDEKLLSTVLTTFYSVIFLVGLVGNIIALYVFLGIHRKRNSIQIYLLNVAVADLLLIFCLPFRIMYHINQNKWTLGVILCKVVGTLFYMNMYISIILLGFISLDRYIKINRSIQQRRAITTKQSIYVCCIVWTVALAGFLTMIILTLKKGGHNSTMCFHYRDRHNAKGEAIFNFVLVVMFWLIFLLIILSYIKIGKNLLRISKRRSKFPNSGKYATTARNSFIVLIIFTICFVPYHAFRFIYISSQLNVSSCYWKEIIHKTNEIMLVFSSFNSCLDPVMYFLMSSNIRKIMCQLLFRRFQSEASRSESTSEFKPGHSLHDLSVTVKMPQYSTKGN
T3 sequence (Q3U507 whole entry): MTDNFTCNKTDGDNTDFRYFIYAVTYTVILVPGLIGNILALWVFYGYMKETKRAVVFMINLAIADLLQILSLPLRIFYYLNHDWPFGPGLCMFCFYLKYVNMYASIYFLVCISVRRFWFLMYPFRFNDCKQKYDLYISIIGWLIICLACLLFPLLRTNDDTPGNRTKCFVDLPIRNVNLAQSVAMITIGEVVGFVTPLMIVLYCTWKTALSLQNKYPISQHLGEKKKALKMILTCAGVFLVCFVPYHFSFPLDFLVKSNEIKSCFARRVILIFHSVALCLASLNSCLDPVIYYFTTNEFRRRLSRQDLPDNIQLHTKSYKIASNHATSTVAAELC

Consider `CCCCCCCC/C=C\CCCCCCCC(=O)OC[C@@H](C)OP(=O)(O)OC[C@H](N)C(=O)O` [Example 1, (9Z)-Octadeca-9-enoic acid (2R)-2-[((2S)-2-amino-2-carboxy-ethoxy)-hydroxy-phosphoryloxy]-propyl ester], for which the “GPR34/LPS2 agonistic activity, TGFα shedding assay” value (“GPR34/LPS2 agonistic activity” for short) at mouse GPR34 was “++++”. For the same molecule, the “P2Y10/LPS2 agonistic activity, TGFα shedding assay” value (from here on “P2Y10/LPS2 agonistic activity”) on mouse P2Y10 is on record as “++”. For the same molecule, on mouse GPR174, the “GPR174/LPS3 agonistic activity, TGFα shedding assay” value (from here on “GPR174/LPS3 agonistic activity”) was “+~++”.
Taken in the same sequence, the figures for `CCCCCCCC/C=C\CCCCCCCC(=O)OC[C@H](C)OP(=O)(O)OC[C@H](N)C(=O)O` [Example 2, (9Z)-Octadeca-9-enoic acid (2S)-2-[((2S)-2-amino-2-carboxy-ethoxy)-hydroxy-phosphoryloxy]-propyl ester] were “+++”, “++~+++” and “+~++”.
For `C[C@H](COC(=O)CCc1ccccc1OCc1cccc(Oc2ccccc2)c1)OP(=O)(O)OC[C@H](N)C(=O)O` [Example 3, (2S)-2-amino-3-[hydroxyl-((1R)-1-methyl-2-{3-[2-(3-phenoxy-benzyloxy)-phenyl]-propionyloxy}-ethoxy)-phosphoryloxy]-propionic acid], the “GPR34/LPS2 agonistic activity” value at mouse GPR34 is listed as “+++++”. For the same molecule, the “receptor selectivity of agonist activity among GPR34, P2Y10, GPR174 (graphs of FIG. 1)” value at mouse GPR34 (TGFα shedding assay, HEK293 cells, AP activity (%) vs concentration) is listed as “agonists having selectivity against GPR34”. Besides, the “P2Y10/LPS2 agonistic activity” value on mouse P2Y10 was “++”. The “GPR174/LPS3 agonistic activity” value on mouse GPR174 is recorded as “−”.
In the case of `CCCCCCCC/C=C\CCCCCCCC(=O)OC[C@@H](COC)OP(=O)(O)OC[C@H](N)C(=O)O` [Example 4, (9Z)-Octadeca-9-enoic acid (2R)-2-[((2S)-2-amino-2-carboxy-ethoxy)-hydroxy-phosphoryloxy]-3-methoxy-propyl ester], the “GPR34/LPS2 agonistic activity” value at mouse GPR34 was “++++”. Further, the “P2Y10/LPS2 agonistic activity” value at mouse P2Y10 is “+”. Moreover, on mouse GPR174, the “GPR174/LPS3 agonistic activity” value is reported as “−”.
In the case of `CCCCCCCC/C=C\CCCCCCCC(=O)OC[C@H](COC)OP(=O)(O)OC[C@H](N)C(=O)O` [Example 5, (9Z)-Octadeca-9-enoic acid (2S)-2-[((2S)-2-amino-2-carboxy-ethoxy)-hydroxy-phosphoryloxy]-3-methoxy-propyl ester], the “GPR34/LPS2 agonistic activity” value at mouse GPR34 is listed as “++”. The “P2Y10/LPS2 agonistic activity” value on mouse P2Y10 is “+”. The “GPR174/LPS3 agonistic activity” value on mouse GPR174 is given as “−”.
Turning to `CCCCCCCC/C=C\CCCCCCCC(=O)OC[C@@H](COCC)OP(=O)(O)OC[C@H](N)C(=O)O` [Example 6, (9Z)-Octadeca-9-enoic acid (2R)-2-[((2S)-2-amino-2-carboxy-ethoxy)-hydroxy-phosphoryloxy]-3-ethoxypropyl ester], the “GPR34/LPS2 agonistic activity” value on mouse GPR34 is given as “+++++”. Also, the “P2Y10/LPS2 agonistic activity” value at mouse P2Y10 is “+”. Also, the “GPR174/LPS3 agonistic activity” value on mouse GPR174 is reported as “−”.
The matching figures for `CCCCCCCC/C=C\CCCCCCCC(=O)OC[C@@H](COCc1ccccc1)OP(=O)(O)OC[C@H](N)C(=O)O` [Example 7, (9Z)-Octadeca-9-enoic acid (2R)-2-[((2S)-2-amino-2-carboxy-ethoxy)-hydroxy-phosphoryloxy]-3-benzyloxy-propyl ester]: “++”, “−” and “−”.
Turning to `CCCCCCCCCCCOc1ccccc1CCC(=O)O[C@@H]1CCOC[C@H]1OP(=O)(O)OC[C@H](N)C(=O)O` [Example 8, (2S)-2-amino-3-((3R,4R)-hydroxy-{4-[3-(2-undecyloxy-phenyl)-propionyloxy]-tetrahydro-pyran-3-yloxy}-phosphoryloxy)-propionic acid], the “GPR34/LPS2 agonistic activity” value at mouse GPR34 is on record as “+++~++++”. Further, the “P2Y10/LPS2 agonistic activity” value at mouse P2Y10 is reported as “+++”. Further, the “GPR174/LPS3 agonistic activity” value on mouse GPR174 is given as “−”.
Taken in the same sequence, the figures for `CCCCCCCCCCCOc1ccccc1CCC(=O)O[C@@H]1COCC[C@H]1OP(=O)(O)OC[C@H](N)C(=O)O` [Example 9, (2S)-2-amino-3-(hydroxyl-{(3R,4R)-3-[3-(2-undecyloxy-phenyl)-propionyloxy]-tetrahydropyran-4-yloxy}-phosphoryloxy)-propionic acid] were “++++~+++++”, “++~+++” and “−”.
The matching figures for `CCCCCCCCCCCOc1ccccc1CCC(=O)O[C@H]1CCOC[C@@H]1OP(=O)(O)OC[C@H](N)C(=O)O` [Example 10, (2S)-2-amino-3-(hydroxy-{(3S,4S)-4-[3-(2-undecyloxy-phenyl)-propionyloxy]-tetrahydro-pyran-3-yloxy}-phosphoryloxy)-propionic acid]: “−”, “++~+++” and “−”.
For `CCCCCCCCCCCOc1ccccc1CCC(=O)O[C@H]1COCC[C@@H]1OP(=O)(O)OC[C@H](N)C(=O)O` [Example 11, (2S)-2-amino-3-(hydroxy-{(3S,4S)-3-[3-(2-undecyloxy-phenyl)-propionyloxy]-tetrahydro-pyran-4-yloxy}-phosphoryloxy)-propionic acid], the “GPR34/LPS2 agonistic activity” value on mouse GPR34 is recorded as “−”. Further, the “P2Y10/LPS2 agonistic activity” value at mouse P2Y10 is “++”. On mouse GPR174, the “GPR174/LPS3 agonistic activity” value is given as “−”.
With `CCCCCCCCCCCOc1ccc(C(C)(C)C)cc1CCC(=O)O[C@H]1COCC[C@@H]1OP(=O)(O)OC[C@H](N)C(=O)O` [Example 12, (2S)-2-amino-3-({(3S,4S)-3-[3-(5-tert-butyl-2-undecyloxy-phenyl)-propionyloxy]-tetrahydro-pyran-4-yloxy}-hydroxy-phosphoryloxy)-propionic acid], the “GPR34/LPS2 agonistic activity” value at mouse GPR34 is listed as “−”. Further, on mouse P2Y10, the “P2Y10/LPS2 agonistic activity” value is given as “+”. The “GPR174/LPS3 agonistic activity” value on mouse GPR174 is listed as “−”.
Regarding `N[C@@H](COP(=O)(O)OC[C@H]1OCCC[C@@H]1OC(=O)CCc1ccccc1OCc1cccc(Oc2ccccc2)c1)C(=O)O` [Example 13, (2S)-2-amino-3-[hydroxyl-((2R,3S)-3-{3-[2-(3-phenoxy-benzyloxy)-phenyl]-propionyloxy}-tetrahydro-pyran-2-ylmethoxy)-phosphoryloxy]-propionic acid], the “GPR34/LPS2 agonistic activity” value at mouse GPR34 is “++”. Further, on mouse P2Y10, the “P2Y10/LPS2 agonistic activity” value is recorded as “−~+”. Also, at mouse GPR174, the “GPR174/LPS3 agonistic activity” value is recorded as “−”.
As for `CCCCCCCCCCCOc1ccccc1CCC(=O)O[C@H]1CCCO[C@@H]1COP(=O)(O)OC[C@H](N)C(=O)O` [Example 14, (2S)-2-amino-3-(hydroxy-{(2R,3S)-3-[3-(2-undecyloxy-phenyl)-propionyloxy]-tetrahydro-pyran-2-ylmethoxy}-phosphoryloxy)-propionic acid], the “GPR34/LPS2 agonistic activity” value on mouse GPR34 is “−”. Also, the “P2Y10/LPS2 agonistic activity” value on mouse P2Y10 is listed as “+”. Further, the “GPR174/LPS3 agonistic activity” value on mouse GPR174 is listed as “−”.
